Active and inactive are the calls of the source.
Experiments:
Beta-galactosidase = Beta-galactosidase (Escherichia coli, UniProt Q8VNN2); test: PubChem AID 485352; format: functional
[1] = molecular target: T1, Type-1 angiotensin II receptor (Homo sapiens, UniProt P30556); test: antagonism of angiotensin II type 1 receptor – cell-based, uHTS hits, selectivity assay for APJ receptor antagonist project, dose response (AID 463214); format: functional;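 note: antagonist potency against angiotensin II stimulated AT1 response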
T1 sequence (P30556 whole entry): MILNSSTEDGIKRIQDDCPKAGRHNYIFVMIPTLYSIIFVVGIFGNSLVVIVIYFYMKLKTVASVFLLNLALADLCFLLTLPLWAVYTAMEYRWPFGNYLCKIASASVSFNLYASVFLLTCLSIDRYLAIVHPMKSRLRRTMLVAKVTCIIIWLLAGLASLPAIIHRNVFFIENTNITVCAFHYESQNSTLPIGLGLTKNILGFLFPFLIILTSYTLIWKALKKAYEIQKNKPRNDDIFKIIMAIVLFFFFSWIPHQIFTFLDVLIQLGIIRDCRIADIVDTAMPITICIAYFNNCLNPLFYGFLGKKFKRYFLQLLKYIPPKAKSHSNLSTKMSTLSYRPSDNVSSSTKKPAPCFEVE

Coagulation factor XII = molecular target: T2, Coagulation factor XII (Homo sapiens, UniProt P00748); format: functional;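 note: activated factor XIIa alpha cleaving a fluorogenic AMC peptide substrate; inhibitor potency from loss of enzyme activity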
T2 sequence (P00748 whole entry): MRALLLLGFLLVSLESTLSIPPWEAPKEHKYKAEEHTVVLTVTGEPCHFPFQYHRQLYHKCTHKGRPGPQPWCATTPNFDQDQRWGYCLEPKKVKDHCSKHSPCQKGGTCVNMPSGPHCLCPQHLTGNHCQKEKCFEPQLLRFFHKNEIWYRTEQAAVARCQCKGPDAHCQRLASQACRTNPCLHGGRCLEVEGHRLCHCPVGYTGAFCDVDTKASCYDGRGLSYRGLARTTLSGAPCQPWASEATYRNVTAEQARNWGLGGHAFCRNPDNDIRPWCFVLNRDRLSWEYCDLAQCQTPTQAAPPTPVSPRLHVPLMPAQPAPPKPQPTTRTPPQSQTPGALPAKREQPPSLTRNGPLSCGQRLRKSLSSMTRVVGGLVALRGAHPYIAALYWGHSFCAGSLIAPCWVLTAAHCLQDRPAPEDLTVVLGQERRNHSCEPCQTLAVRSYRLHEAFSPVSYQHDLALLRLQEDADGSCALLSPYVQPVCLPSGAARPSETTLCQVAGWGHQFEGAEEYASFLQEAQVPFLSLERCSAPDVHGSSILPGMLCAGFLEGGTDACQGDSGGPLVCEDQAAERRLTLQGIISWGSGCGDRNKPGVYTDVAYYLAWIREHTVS

Vero = test: cells; format: functional; conditions: Chlorocebus sabaeus
[2] = luciferase reporter signal suppression in cells – H4 neuroglioma cells, luminescence, dose response (AID 1990); format: functional, cell-based
[3] = tested on: Streptococcus sp. 'group A'; test: Streptococcus pyogenes SK(-)GAS viability under kanamycin – luminescence, BacTiterGlo, confirmation, counter-screen for streptokinase expression inhibitor project, dose response (AID 1900); format: functional, organism-based
[4] = Luminescence Cell-Based Dose Response HTS to Identify Inhibitors of 5'UTR Stem-Loop Driven Prion Protein mRNA Translation in H4 Neuroglioblastoma Cells. [Related pubchem assays: 1827 (Project Summary), 1813 (Primary HTS)]; format: functional
[5] = alpha-synuclein stem-loop luciferase translation blockers – H4 neuroglioma cells, luminescence, confirmation (AID 1988); format: functional, cell-based
[6] = Trypanosoma cruzi growth suppression in host cells – NIH3T3 host cells, beta-gal luminescence, confirmation (AID 2044); format: functional, cell-based;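 note: intracellular parasites grown in NIH/3T3 mouse fibroblasts as host cells; luminescent beta-galactosidase reporter signal from transgenic T. cruzi replicating inside host cells; inhibitors lower the luminescence signal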
[7] = NIH3T3 cell viability loss – ATP luminescence, mouse fibroblasts, counter-screen, dose response (AID 2010); format: functional, cell-based;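 note: cells exposed to compound for about 90 hours before reading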
Streptococcus = test: GAS UMAA2166 growth inhibition – luminescence, BacTiterGlo, counter-screen for streptokinase expression inhibitor project, dose response (AID 1915); format: functional, organism-based;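 note: potency for reduction of bacterial viability or growth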
Aminopeptidase N = molecular target: T3, Aminopeptidase N (Plasmodium falciparum FcB1/Columbia, UniProt O96935); test: malaria alanyl aminopeptidase activity blockers – biochemical, fluorogenic H-Leu-NHMec substrate, 1536-well (AID 1445); parameters: species or system Plasmodium falciparum 3D7, 3D7
T3 sequence (O96935 whole entry): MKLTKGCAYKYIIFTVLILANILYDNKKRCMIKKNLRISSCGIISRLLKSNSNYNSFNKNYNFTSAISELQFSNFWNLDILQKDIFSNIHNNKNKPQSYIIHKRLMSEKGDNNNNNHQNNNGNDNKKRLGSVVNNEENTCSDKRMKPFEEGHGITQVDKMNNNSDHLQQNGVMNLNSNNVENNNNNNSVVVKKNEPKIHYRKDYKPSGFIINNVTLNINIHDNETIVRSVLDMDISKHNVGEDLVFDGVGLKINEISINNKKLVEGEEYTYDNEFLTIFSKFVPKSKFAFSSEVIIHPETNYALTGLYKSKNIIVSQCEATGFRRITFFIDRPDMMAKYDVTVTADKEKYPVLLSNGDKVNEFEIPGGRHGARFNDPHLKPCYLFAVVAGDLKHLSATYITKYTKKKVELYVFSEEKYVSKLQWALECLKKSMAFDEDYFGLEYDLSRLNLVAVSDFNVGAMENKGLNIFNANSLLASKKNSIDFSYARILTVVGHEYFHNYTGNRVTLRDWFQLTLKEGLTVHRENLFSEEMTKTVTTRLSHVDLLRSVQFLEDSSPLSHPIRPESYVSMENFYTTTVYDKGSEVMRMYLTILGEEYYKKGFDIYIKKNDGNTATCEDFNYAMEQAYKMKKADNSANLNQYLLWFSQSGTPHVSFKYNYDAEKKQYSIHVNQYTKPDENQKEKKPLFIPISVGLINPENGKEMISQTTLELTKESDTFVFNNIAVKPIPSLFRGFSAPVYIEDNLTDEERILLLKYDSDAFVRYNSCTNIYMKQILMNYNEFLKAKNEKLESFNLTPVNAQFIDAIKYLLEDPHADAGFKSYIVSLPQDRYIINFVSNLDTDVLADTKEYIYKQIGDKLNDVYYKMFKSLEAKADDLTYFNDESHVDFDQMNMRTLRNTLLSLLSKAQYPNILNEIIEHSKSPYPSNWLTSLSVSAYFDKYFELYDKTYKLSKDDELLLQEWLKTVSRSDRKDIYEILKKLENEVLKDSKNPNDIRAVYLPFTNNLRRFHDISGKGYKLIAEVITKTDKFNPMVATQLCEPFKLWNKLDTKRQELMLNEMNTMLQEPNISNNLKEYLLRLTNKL

Genome polyprotein = Genome polyprotein (dengue virus type 2, UniProt P29990); test: flavivirus cap methylation enzyme inhibition – biochemical, confirmation dose response, primary screen (AID 588689); format: functional
[8] = molecular target: T4, Calpain-2 catalytic subunit (Sus scrofa, UniProt P43367); test: m-calpain protease blockers, concentration series – biochemical, fluorogenic peptide substrate, dose response (AID 1420); format: functional
T4 sequence (P43367 whole entry): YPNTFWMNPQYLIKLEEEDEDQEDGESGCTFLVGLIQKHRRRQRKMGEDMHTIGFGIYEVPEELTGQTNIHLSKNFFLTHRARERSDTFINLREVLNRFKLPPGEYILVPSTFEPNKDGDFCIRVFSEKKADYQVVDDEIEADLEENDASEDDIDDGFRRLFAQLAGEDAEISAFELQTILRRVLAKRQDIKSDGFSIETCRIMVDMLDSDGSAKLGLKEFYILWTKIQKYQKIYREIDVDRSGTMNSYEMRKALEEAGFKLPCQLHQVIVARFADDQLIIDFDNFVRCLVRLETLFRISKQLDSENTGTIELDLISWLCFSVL

[9] = molecular target: T5, Microphthalmia-associated transcription factor (Homo sapiens, UniProt O75030); test: reducers of TRPM1 reporter luminescence, concentration series – cell-based, SK-MEL-5, cherry-picked, set 3, MITF inhibitor project, dose response (AID 493073); format: functional;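 note: SK-MEL-5 melanoma cells with luciferase driven by the MITF target TRPM1 promoter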
T5 sequence (O75030 whole entry): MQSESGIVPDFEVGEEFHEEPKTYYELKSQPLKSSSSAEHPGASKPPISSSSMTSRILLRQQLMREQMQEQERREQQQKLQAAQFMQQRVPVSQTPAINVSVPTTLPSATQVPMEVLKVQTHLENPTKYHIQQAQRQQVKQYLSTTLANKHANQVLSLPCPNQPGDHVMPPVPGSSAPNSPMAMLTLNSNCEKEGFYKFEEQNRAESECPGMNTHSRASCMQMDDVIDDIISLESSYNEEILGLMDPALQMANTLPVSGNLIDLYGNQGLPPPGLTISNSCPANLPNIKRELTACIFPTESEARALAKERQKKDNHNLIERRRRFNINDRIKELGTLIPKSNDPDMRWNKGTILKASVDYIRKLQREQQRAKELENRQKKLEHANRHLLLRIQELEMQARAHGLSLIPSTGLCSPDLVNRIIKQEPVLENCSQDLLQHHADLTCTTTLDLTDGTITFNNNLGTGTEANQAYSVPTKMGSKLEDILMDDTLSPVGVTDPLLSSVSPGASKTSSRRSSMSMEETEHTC

Fatty acid synthase [10] = molecular target: T6, Fatty acid synthase (Homo sapiens, UniProt P49327); test: inhibition of human FAS-TE enzyme activity – biochemical, endpoint fluorescence intensity, uHTS hits, dose response (AID 624327); format: functional;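 note: fluorescence from hydrolysis of an O-methyl fluorescein acyl ester substrate by the enzyme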
Fatty acid synthase [11] = molecular target: T6, Fatty acid synthase; test: inhibition of human FAS-TE enzyme activity – biochemical, kinetic fluorescence intensity, dose response (AID 624326); format: functional;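 note: rate of fluorescence rise from hydrolysis of a fluorogenic O-methyl fluorescein ester substrate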

Chain of Beta-galactosidase (Q8VNN2 whole entry): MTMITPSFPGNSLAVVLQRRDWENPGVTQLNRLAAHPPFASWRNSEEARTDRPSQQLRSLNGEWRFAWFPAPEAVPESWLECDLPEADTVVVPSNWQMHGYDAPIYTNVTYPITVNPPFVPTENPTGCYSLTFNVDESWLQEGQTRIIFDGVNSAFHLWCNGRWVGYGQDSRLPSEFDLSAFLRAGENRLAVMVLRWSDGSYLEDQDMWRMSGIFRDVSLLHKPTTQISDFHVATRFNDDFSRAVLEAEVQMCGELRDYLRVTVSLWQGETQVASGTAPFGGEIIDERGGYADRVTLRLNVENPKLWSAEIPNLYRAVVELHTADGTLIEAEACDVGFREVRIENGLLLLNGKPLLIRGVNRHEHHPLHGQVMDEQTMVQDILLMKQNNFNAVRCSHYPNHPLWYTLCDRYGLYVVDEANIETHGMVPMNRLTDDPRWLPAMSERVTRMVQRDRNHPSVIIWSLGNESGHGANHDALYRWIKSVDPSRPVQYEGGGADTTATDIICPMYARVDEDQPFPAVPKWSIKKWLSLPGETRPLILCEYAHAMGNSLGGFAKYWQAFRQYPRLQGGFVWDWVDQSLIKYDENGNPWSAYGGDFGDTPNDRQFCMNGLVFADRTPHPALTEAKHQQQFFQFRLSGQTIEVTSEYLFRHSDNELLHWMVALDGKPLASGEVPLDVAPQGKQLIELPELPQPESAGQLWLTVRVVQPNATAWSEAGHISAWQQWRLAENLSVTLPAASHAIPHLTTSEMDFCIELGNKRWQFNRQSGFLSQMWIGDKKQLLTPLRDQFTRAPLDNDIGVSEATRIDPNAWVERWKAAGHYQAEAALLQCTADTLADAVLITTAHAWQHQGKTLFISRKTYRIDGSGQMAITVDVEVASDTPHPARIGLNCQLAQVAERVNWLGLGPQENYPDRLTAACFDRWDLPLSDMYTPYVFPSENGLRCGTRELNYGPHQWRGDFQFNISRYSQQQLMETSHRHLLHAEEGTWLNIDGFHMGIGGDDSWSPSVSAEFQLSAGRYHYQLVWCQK
T6 sequence (P49327 whole entry): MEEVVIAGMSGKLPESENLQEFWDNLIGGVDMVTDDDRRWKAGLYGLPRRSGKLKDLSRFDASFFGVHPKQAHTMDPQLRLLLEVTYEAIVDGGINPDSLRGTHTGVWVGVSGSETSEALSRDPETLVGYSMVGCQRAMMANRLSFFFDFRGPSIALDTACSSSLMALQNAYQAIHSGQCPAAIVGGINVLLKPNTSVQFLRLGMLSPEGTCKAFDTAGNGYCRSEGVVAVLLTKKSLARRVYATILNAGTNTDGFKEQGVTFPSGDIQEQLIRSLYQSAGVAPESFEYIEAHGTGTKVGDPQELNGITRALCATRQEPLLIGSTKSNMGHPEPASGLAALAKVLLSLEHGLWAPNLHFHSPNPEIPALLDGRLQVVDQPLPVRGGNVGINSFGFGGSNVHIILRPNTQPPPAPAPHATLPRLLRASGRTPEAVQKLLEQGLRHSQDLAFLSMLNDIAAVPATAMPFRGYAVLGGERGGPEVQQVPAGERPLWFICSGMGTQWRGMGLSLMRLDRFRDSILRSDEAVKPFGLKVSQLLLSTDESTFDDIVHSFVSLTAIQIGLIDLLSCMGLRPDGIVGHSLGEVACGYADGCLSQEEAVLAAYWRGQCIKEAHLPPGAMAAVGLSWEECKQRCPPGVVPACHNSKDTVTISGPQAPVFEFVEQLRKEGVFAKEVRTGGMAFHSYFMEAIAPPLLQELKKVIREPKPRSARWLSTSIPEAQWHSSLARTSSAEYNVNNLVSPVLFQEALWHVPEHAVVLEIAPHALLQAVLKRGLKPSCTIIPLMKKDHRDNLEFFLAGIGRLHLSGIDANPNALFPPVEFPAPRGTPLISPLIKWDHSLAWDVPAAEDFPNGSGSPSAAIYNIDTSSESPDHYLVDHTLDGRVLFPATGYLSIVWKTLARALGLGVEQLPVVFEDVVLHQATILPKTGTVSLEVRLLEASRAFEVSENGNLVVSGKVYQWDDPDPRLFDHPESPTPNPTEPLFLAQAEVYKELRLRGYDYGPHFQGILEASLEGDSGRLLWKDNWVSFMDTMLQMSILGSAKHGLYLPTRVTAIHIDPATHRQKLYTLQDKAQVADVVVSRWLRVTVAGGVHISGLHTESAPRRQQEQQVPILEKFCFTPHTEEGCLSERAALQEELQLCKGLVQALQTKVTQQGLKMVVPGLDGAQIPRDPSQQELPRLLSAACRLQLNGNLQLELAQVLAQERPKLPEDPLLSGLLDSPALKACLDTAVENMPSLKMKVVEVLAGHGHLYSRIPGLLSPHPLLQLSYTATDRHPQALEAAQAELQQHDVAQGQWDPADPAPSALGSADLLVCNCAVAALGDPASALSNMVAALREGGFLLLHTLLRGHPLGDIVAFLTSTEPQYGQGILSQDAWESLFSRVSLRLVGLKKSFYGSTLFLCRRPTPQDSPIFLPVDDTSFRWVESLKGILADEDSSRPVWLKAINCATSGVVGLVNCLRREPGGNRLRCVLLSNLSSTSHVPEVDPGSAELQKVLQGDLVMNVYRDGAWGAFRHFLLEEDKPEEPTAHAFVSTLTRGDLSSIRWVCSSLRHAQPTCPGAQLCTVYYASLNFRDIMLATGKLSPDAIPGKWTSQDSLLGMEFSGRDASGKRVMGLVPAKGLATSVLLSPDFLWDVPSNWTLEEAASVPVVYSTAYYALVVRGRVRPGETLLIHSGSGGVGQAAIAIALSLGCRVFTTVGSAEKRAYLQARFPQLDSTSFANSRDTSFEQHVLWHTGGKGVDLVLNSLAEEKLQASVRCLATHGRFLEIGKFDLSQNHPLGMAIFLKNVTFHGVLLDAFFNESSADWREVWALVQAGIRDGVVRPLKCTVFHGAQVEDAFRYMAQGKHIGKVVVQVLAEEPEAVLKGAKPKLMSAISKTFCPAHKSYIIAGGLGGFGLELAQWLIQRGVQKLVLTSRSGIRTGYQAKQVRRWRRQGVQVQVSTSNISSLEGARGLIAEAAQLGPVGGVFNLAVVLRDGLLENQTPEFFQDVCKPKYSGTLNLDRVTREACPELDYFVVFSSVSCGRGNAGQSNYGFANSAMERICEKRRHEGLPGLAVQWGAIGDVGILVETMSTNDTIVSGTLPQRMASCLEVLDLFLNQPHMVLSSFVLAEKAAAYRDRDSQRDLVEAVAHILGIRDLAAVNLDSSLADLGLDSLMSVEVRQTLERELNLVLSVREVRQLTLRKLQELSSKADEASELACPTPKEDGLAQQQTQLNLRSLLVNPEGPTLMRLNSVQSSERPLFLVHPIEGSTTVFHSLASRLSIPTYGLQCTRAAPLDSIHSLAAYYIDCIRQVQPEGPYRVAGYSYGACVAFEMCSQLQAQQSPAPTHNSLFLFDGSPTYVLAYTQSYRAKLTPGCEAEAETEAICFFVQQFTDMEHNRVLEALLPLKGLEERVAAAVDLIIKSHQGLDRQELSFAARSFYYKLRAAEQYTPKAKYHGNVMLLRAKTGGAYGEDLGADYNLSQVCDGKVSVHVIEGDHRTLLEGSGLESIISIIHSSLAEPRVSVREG
Chain of Genome polyprotein (P29990 2492-3391 limits assumed): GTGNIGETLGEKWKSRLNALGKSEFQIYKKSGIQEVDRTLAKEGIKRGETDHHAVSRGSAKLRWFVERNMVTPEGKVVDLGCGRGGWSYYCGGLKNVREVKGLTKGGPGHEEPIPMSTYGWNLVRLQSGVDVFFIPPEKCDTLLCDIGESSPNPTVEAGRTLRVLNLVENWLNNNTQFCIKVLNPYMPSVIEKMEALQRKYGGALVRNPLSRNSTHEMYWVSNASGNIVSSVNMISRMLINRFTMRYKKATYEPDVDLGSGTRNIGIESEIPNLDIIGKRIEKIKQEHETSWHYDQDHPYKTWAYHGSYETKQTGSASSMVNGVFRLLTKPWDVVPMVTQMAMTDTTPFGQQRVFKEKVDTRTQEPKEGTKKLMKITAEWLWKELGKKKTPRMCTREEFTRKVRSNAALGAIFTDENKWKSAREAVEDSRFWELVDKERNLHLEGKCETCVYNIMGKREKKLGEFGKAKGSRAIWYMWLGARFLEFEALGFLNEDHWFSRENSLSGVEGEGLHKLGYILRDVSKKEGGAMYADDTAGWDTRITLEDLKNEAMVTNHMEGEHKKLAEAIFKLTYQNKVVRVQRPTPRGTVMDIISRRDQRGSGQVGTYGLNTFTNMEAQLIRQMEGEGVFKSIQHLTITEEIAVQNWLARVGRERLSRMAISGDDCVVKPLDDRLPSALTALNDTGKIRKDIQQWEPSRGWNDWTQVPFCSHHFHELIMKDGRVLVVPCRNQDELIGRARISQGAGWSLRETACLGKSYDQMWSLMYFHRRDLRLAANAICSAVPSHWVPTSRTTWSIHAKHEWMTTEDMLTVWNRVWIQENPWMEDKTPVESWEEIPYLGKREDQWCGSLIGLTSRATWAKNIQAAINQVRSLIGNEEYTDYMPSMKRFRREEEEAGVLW

## CC(C)c1ccc(O)c(NC(=S)NC(=O)c2cccnc2)c1
Beta-galactosidase
  EC50: > 40 µM (inactive)
[1]
  IC50: 23.2 µM (not active)
Coagulation factor XII
  IC50: > 50 µM (inactive)

## CN(C)CC1CCC/C(=C\c2ccc(OC(=O)/C=C/c3ccccc3)cc2)C1=O (stereo not given)
Vero
  CC50: > 25 µM (active)

## CC(C)(C)c1cc(Cl)c(O)c(NC(=S)NC(=O)c2cccnc2)c1
[2]
  EC50: 16.5 µM (active)
[3]
  EC50: 448 nM (active)
[4]
  EC50: 15 µM (active)
Beta-galactosidase
  EC50: > 40 µM (inactive)
[5]
  EC50: > 120 µM (not active)
[6]
  EC50: 2.56 µM (active)
[1]
  IC50: 22.2 µM (not active)
[7]
  EC50: 6.97 µM (active)
Streptococcus
  EC50: 6.42 µM (active)

## COc1ccccc1/C=C1\SC(=S)N(C(C(=O)O)c2ccccc2)C1=O (stereo not given)
Aminopeptidase N
  IC50: 26 µM (active)
Genome polyprotein
  IC50: 39.1 µM (active)

## COc1ccc(C(=O)NC(=S)Nc2nnn(C)n2)cc1
Beta-galactosidase
  EC50: > 40 µM (inactive)
[1]
  IC50: > 40 µM (not active)

## OCCN1C[C@H](O)[C@@H](O)[C@H](O)[C@H]1CO [MIGLITOL]
Beta-galactosidase
  EC50: > 40 µM (inactive)
[1]
  IC50: > 40 µM (not active)

## C=C1C(=O)OC2CC3(C)OC3CCC(C)=CC(OC(C)=O)C12 (stereo not given)
Vero
  CC50: 23.8 µM (active)

## CCOc1cc(/C=C(/C#N)c2ccc(Cl)cc2)cc(Cl)c1OCC(=O)O
[8]
  IC50: 3.06 µM (not active)
[9]
  AC50: 5.61 µM (active)
Genome polyprotein
  IC50: 34.5 µM (active)
Fatty acid synthase [10]
  IC50: 6.78 µM (active)
Fatty acid synthase [11]
  IC50: 10.4 µM (active)

From ChEMBL document CHEMBL1201862, “PubChem BioAssay data set” (2004)
